We go through 12 compounds from US20200316090A1, “TARGETED THERAPEUTICS” (MADRIGAL PHARMACEUTICALS, INC., priority 2012, published 2020).

Read-outs that look alike come from different tables or passages of the source.

A short description of data set [1]: Artificial membrane permeability assay (PAMPA).
Procedure: In order to test the ability SDC-TRAP molecules of the invention to enter cells, an artificial membrane permeability assay (“PAMPA”) was used. […] LC/MS was used in conjunction with PAMPA assays to determine the ability of the SDC-TRAP molecules of the invention to permeate cells.
Pre-coated PAMPA plates were warmed to room temperature for at least 30 minutes prior to adding assay components.
Stock solutions were prepared with the SDC-TRAP molecules to be tested. In order to make a working solution, either 50 μL of 100 μM Stock in DMSO+950 μL of PBS or 50 μL of 200 stock was added to 96 deep well plate, resulting in a 5 μM final concentration or a 10 μM final concentration, respectively. […] 200 μL of PBS was added into the corresponding wells of an acceptor PAMPA plates.
The acceptor plate was lowered onto the donor plate and allowed to incubate for five hours. After five hours, a 50 μL aliquot was removed from each well of each plate and added into a new 96 deep-well plate.
100 μL of methanol containing an internal standard was added to each aliquot and analyzed by LC/MS. The internal standard was 150 ng/ml SDC-TRAP-0002.
In order to calculate the permeability for each SDC-TRAP molecule and the control molecules, the following formula was used:
Permeability (in Unit of Cm/s):
[formula] • C0=initial compound concentration in donor well (mM) • CD (t)=compound concentration in donor well at time t. (mM) • CA (t)=compound concentration in acceptor well at time t. (mM) • VD=donor well volume=0.3 mL • VA=acceptor well volume=0.2 mL • A=filter area=0.3 cm^2 • t=incubation time=18000 s (5 h)
For the data presented in the table below, peak area was used in place of concentration in the formula above.
The nature of data set [2]: Tissue distribution of SDC-TRAP and degradation products in tumor-bearing mice (plasma, tumor, heart). Type of data set: in vivo, Female SCID Mouse (H1975).
Procedure: A 150 ng/mL solution of SDC-TRAP-0002 in methanol was prepared using an internal spiking solution (500 μg/mL SDC-TRAP-0002 in DMSO). Using the 10 mM stock solutions of the SDC-TRAP molecule and its Hsp90i binding moiety and effector moiety in DMSO, spiking solutions were prepared at 0.025, 0.05, 0.1, 0.5, 1, 5, 10, 50, 100, 250, and 500 μM in DMSO. 5 μL of each spiking solution was added to a 96-deep well plate.
Quality control standards were prepared from 5 μL of 0.1, 1, and 10 μM calibration standard spiking solution added in triplicate into 96-deep well plate and adding 50 μL of matrix (plasma or homogenized tumor).
To prepare test samples, test plasma was diluted as needed using blank plasma. Tumor samples were pulverized in liquid nitrogen, weighed, and homogenized in PBS at 5× volume to sample weight. 50 μL of unknown plasma or homogenized tumor sample was mixed with 5 μL of DMSO. The samples were extracted by precipitating calibration standards, QC standards, and unknown samples with 200 μL of internal standard solution. The samples were mixed by vortex at room temperature for approximately 1.5 minutes, then centrifuge at 2-8° C. 150 μL of supernatant was collected and 25 μL of water added. Samples were mixed and analyzed by LC-MS/MS.
Samples of plasma, heart and tumor were excised from a euthanized mouse, homogenized in PBS at 5 times tissue weight and diluted in 5 μL DMSO/50 μL sample. Prior to analysis, 55 μL samples and calibration standards were precipitated in 200 μL methanol in 96-well plates. Samples were mixed on a vortex mixer for 1.5 minutes at 1500 rpm at room temperature, then centrifuged at 4400 rpm for 10 minutes at 8° C. 150 μL of each supernatant was transferred to a well of a new 96-well plate, and 25 μL of water was added and mixed with the sample. […] For the analysis of samples from female SCID mice, a gradient of solvent A (water/0.1% formic acid) and B (acetonitrile/0.1% formic acid) was used as in Table A below.
Where [3] appears, read: Permeability (10^−6 cm/s), 5 h incubation, peak area used in place of concentration, first table.
Where [4] appears, read: Permeability (cm/s), 5 h incubation, peak area used in place of concentration, first table.
Where [5] appears, read: tissue distribution of SDC-TRAP-0056, 6 h.
Setting [6] is: tissue distribution of SDC-TRAP-0056, 12 h.
The mark [7] stands for this setting: tissue distribution of SDC-TRAP-0056, 24 h.
[8] abbreviates: female, SCID, mouse, in vivo, read-out: Tumor/Plasma Ratio.
Where [9] appears, read: female, SCID, mouse, in vivo, read-out: Plasma Conc.

For the compound `Cn1c(=O)c2c(ncn2C)n(C)c1=O` [Caffeine], the “Mass Retention (%)” value in data set [1] (5 h incubation, first table) is given as 20.8%; in data set [1] (same protocol, second table), −0.11%. Further, the apparent permeability coefficient (Papp) at 5 h in data set [1] (setting [3]) amounted to 11.7 ×10⁻⁶ cm/s; in data set [1] (Permeability (10^−6 cm/s), same protocol, second table), 14.3 ×10⁻⁶ cm/s; in data set [1] (setting [4]), 11.7 ×10⁻⁶ cm/s; in data set [1] (Permeability (cm/s), same protocol, second table), 14.3 ×10⁻⁶ cm/s.

As to `CC(=O)O[C@@]12CO[C@@H]1C[C@H](O)[C@@]1(C)C(=O)[C@H](O)C3=C(C)[C@@H](OC(=O)[C@H](O)[C@@H](NC(=O)OC(C)(C)C)c4ccccc4)C[C@@](O)([C@@H](OC(=O)c4ccccc4)[C@H]21)C3(C)C` [Docetaxel, docetaxel, reference compound], the “Mass Retention (%)” value in data set [1] (5 h incubation, first table) stood at 17.6%. Also, the Papp at 5 h in data set [1] (setting [3]) and in data set [1] (setting [4]) was 0.05 ×10⁻⁶ cm/s throughout.

Take `COc1cccc2c1C(=O)c1c(O)c3c(c(O)c1C2=O)C[C@@](O)(C(=O)CO)C[C@@H]3O[C@H]1C[C@H](N)[C@H](O)[C@H](C)O1` [Doxorubicin, doxorubicin, reference compound]: the “Mass Retention (%)” value in data set [1] (5 h incubation, first table) is 21.0%. Moreover, the Papp at 5 h in data set [1] (setting [3]) and in data set [1] (setting [4]) was 0.0033 ×10⁻⁶ cm/s throughout.

In the case of `CC(C)c1cc(-c2nnc(O)n2-c2ccc3c(ccn3CCN(C)C(=O)CCCC(=O)Nc3cccc4c3CN(C3CCC(=O)NC3=O)C4=O)c2)c(O)cc1O` (stereo not shown) [SDC-TRAP-0018, N1-(2-(5-(3-(2,4-dihydroxy-5-isopropylphenyl)-5-hydroxy-4H-1,2,4-triazol-4-yl)-1H-indol-1-yl)ethyl)-N5-(2-(2,6-dioxopiperidin-3-yl)-1-oxoisoindolin-4-yl)-N1-methylglutaramide], the “Mass Retention (%)” value in data set [1] (5 h incubation, first table) is 14.7%. The Papp at 5 h in data set [1] (setting [3]) and in data set [1] (setting [4]) was 0.0268 ×10⁻⁶ cm/s in each case.

With `CC(C)c1cc(-c2nnc(O)n2-c2ccc3c(ccn3CCOCCNC(=O)CCn3cc(F)c(=O)[nH]c3=O)c2)c(O)cc1O` [SDC-TRAP-0048, N-(2-(2-(5-(3-(2,4-dihydroxy-5-isopropylphenyl)-5-hydroxy-4H-1,2,4-triazol-4-yl)-1H-indol-1-yl)ethoxy)ethyl)-3-(5-fluoro-2,4-dioxo-3,4-dihydropyrimidin-1 (2H)-yl)propanamide], the “Mass Retention (%)” value in data set [1] (5 h incubation, first table) is 10.8%. For the same compound, the Papp at 5 h in data set [1] (setting [3]) and in data set [1] (setting [4]) was 0.0283 ×10⁻⁶ cm/s in each case.

As to `CC(C)c1cc(-c2nnc(O)n2-c2ccc(CN3CCN(C(=O)CCn4cc(F)c(=O)[nH]c4=O)CC3)cc2)c(O)cc1O` [SDC-TRAP-0049, 1-(3-(4-(4-(3-(2,4-dihydroxy-5-isopropylphenyl)-5-hydroxy-4H-1,2,4-triazol-4-yl)benzyl)piperazin-1-yl)-3-oxopropyl)-5-fluoropyrimidine-2,4 (1H,3H)-dione], the “Mass Retention (%)” value in data set [1] (5 h incubation, first table) is given as 14.1%. In addition, the Papp at 5 h in data set [1] (setting [3]) and in data set [1] (setting [4]) was 0.0124 ×10⁻⁶ cm/s in each case.

With `CCc1c2c(nc3ccc(O)cc13)-c1cc3c(c(=O)n1C2)COC(=O)C3(CC)OC(=O)CN1CCN(c2ccc(-n3c(O)nnc3-c3cc(C(C)C)c(O)cc3O)cc2)CC1` (stereo not shown) [SDC-TRAP-0056, 4,11-diethyl-9-hydroxy-3,14-dioxo-3,4,12,14-tetrahydro-1H-pyrano[3′,4′:6,7]indolizino[1,2-b]quinolin-4-yl 2-(4-(4-(3-(2,4-dihydroxy-5-isopropylphenyl)-5-hydroxy-4H-1,2,4-triazol-4-yl)phenyl)piperazin-1-yl)acetate], the Kp in data set [2] (female, SCID, mouse, in vivo, tissue distribution of SDC-TRAP-0056, 6 h, read-out: Tumor/Plasma Ratio) stood at 0.844; in data set [2] (female, SCID, mouse, in vivo, tissue distribution of SDC-TRAP-0056, 12 h, read-out: Tumor/Plasma Ratio) it was 40.3; in data set [2] (female, SCID, mouse, in vivo, tissue distribution of SDC-TRAP-0056, 24 h, read-out: Tumor/Plasma Ratio), 40.3; in data set [2] (female, SCID, mouse, in vivo, tissue distribution of SDC-TRAP-0056, […], read-out: Tumor/Plasma Ratio) it was 0.0193. Moreover, the “Plasma Conc.” value in data set [2] (setting [5]) is 5.88 µM; in data set [2] (setting [6]), 0.0542 µM; in data set [2] (setting [7]), 0.0542 µM. In addition, the “Tumor Conc.” value in data set [2] (setting [5]) is 4.97 nmol/g of tissue; in data set [2] (setting [6]), 2.19 nmol/g of tissue; in data set [2] (setting [7]) it was 2.19 nmol/g of tissue; in data set [2] (tissue distribution of SDC-TRAP-0056, 48 h) it was 0.188 nmol/g of tissue.

As for `CCc1c2c(nc3ccc(O)cc13)-c1cc3c(c(=O)n1C2)COC(=O)[C@@]3(CC)OC(=O)N1CCC(CCn2ccc3cc(-n4c(O)nnc4-c4cc(C(C)C)c(O)cc4O)ccc32)CC1` [SDC-TRAP-0064, (S)-4,11-diethyl-9-hydroxy-3,14-dioxo-3,4,12,14-tetrahydro-1H-pyrano[3′,4′:6,7]indolizino[1,2-b]quinolin-4-yl 4-(2-(5-(3-(2,4-dihydroxy-5-isopropylphenyl)-5-hydroxy-4H-1,2,4-triazol-4-yl)-1H-indol-1-yl)ethyl)piperidine-1-carboxylate], the “Mass Retention (%)” value in data set [1] (same protocol, second table) is given as 48.4%.

Regarding `COc1ccc(-c2cnoc2-c2cc(OC)c(OC)c(OC)c2)cc1OC(=O)N1CCN(Cc2ccc(-n3c(O)nnc3-c3cc(C(C)C)c(O)cc3O)cc2)CC1` [SDC-TRAP-0098, 2-Methoxy-5-(5-(3,4,5-trimethoxyphenyl)isoxazol-4-yl)phenyl-4-(4-(3-(2,4-dihydroxy-5-isopropylphenyl)-5-hydroxy-4H-1,2,4-triazol-4-yl)benzyl) piperazine-1-carboxylate], the “Tumor Conc.” value in data set [2] (tissue distribution of SDC-TRAP-0098, 1 h) is given as 0.250 nmol/g of tissue; in data set [2] (tissue distribution of SDC-TRAP-0098, 6 h) it was 0.0122 nmol/g of tissue; in data set [2] (tissue distribution of SDC-TRAP-0098, 24 h), “BQL”; in data set [2] (tissue distribution of SDC-TRAP-0098, 48 h) it was “BQL”.

Consider `CC(C)c1cc(-c2nnc(O)n2-c2ccc(CN3CCN(C(=O)Oc4ccc(COC(=O)Nc5cccc6c5CN(C5CCC(=O)NC5=O)C6=O)cc4)CC3)c(F)c2)c(O)cc1O` (stereo not shown) [SDC-TRAP-0171, 4-((((2-(2,6-dioxopiperidin-3-yl)-1-oxoisoindolin-4-yl)carbamoyl)oxy)methyl)phenyl-4-(4-(3-(2,4-dihydroxy-5-isopropylphenyl)-5-hydroxy-4H-1,2,4-triazol-4-yl)-2-fluorobenzyl)piperazine-1-carboxylate], for which the Kp at 6 h in data set [2] (setting [8]) came to 407.

Turning to `CCNC(=O)c1nnc(-c2cc(C(C)C)c(O)cc2O)n1-c1ccc(C(=O)N2CCN(c3cc(C)c(OC(=O)Nc4cccc5c4CN(C4CCC(=O)NC4=O)C5=O)c(C)c3)CC2)cc1` (stereo not shown) [SDC-TRAP-0178, 4-(4-(4-(3-(2,4-dihydroxy-5-isopropylphenyl)-5-(ethylcarbamoyl)-4H-1,2,4-triazol-4-yl)benzoyl)piperazin-1-yl)-2,6-dimethylphenyl (2-(2,6-dioxopiperidin-3-yl)-1-oxoisoindolin-4-yl)carbamate], in data set [2] (setting [9]), the concentration at 1 h stood at 217 µM, the concentration at 6 h worked out at 4.51 µM, the concentration at 24 h was 28 nM and the concentration at 48 h came to 241 nM. For the same compound, in data set [2] (setting [8]), the Kp at 1 h came out at 1.59, the Kp at 6 h worked out at 100, the Kp at 24 h worked out at 100 and the Kp at […] stood at 0.0179.

`CCNC(=O)c1nnc(-c2cc(C(C)C)c(O)cc2O)n1-c1ccc(CN2CCC(C(=O)N[C@@H](CC(C)C)C(=O)Nc3cccc4c3CN(C3CCC(=O)NC3=O)C4=O)CC2)cc1` (stereo partly drawn) [SDC-TRAP-0193, 1-(4-(3-(2,4-dihydroxy-5-isopropylphenyl)-5-(ethylcarbamoyl)-4H-1,2,4-triazol-4-yl)benzyl)-N-((2S)-1-((2-(2,6-dioxopiperidin-3-yl)-1-oxoisoindolin-4-yl)amino)-4-methyl-1-oxopentan-2-yl)piperidine-4-carboxamide]: in data set [1] (5 h incubation, first table), the “Mass Retention (%)” value is given as 10.2%. The Papp at 5 h in data set [1] (setting [3]) and in data set [1] (setting [4]) was 0.00859 ×10⁻⁶ cm/s in each case.
